Assay results published in patent publication US8134015B2, “Compound inhibiting in vivo phosphorous transport and medicine containing the same” (Kyowa Hakko Kirin Co., Ltd., priority 2003, dated 2012).

Biological target: T1, rat NaPi-2b (Rattus norvegicus, UniProt Q9JJ09)
T1 construct: expressed in transfected cells; host or cells: Xenopus oocytes injected with cRNA
T1 sequence (Q9JJ09 1-695): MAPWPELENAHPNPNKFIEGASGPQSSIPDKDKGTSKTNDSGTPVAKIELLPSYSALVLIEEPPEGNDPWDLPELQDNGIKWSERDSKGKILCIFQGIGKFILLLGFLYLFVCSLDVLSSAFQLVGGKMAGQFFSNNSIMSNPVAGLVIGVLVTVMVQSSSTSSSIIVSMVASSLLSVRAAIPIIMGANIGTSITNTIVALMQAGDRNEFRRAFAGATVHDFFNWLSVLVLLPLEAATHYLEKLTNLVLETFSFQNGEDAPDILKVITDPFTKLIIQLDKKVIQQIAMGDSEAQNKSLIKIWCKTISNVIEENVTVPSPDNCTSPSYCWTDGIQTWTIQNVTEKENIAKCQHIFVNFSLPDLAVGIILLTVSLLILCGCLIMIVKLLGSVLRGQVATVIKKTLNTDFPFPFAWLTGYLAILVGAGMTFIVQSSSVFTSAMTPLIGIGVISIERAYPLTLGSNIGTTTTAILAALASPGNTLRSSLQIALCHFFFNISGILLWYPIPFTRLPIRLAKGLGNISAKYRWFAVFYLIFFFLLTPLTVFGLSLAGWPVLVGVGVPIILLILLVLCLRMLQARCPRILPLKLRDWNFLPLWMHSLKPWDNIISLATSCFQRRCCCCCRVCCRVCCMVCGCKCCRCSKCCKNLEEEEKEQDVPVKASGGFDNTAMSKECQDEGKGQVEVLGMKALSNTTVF
Test: Sodium-dependent phosphate uptake of Xenopus oocytes which expressed NaPi-2b (32P)
Type: cell-based
Conditions: Xenopus oocytes expressing rat NaPi-2b, 32P radioactive phosphorus; read-out: IC50 (phosphate uptake inhibitory activity)
Method in brief: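 Oocytes injected with rat NaPi-2b cRNA, cultured 2 d, then 32P uptake measured with compound. Values: % inhibition at 300 and 100 μM, both from one inhibition curve.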

**Q.** For Cc1ccc(/C=N/NC(=O)c2c(C)csc2NC(=O)c2cccc(CN(CC(C)O)CC(C)O)c2)cc1C (stereo not shown) [Compound 587, 3-{[Bis-(2-hydroxy-propyl)-amino]-methyl}-N-[3-(3,4-dimethyl-benzylidene-hydrazinocarbonyl)-4-methyl-thiophen-2-yl]-benzamide], which IC50 is on record?
**A.** Its IC50 is under 3 µM.

**Q.** For Cc1ccc(/C=N/NC(=O)c2c(C)csc2NC(=O)c2cccc(CN(CC(C)O)CC(C)O)c2)cc1 (stereo not shown) [Compound 588, 3-{[Bis-(2-hydroxy-propyl)-amino]-methyl}-N-[4-methyl-3-(4-methyl-benzylidene-hydrazinocarbonyl)-thiophen-2-yl]-benzamide], which IC50 is on record?
**A.** The IC50 was 9.33 µM.

**Q.** Cc1csc(NC(=O)c2cccc(CN(CC(C)O)CC(C)O)c2)c1C(=O)N/N=C/c1ccc(F)cc1 (stereo not shown) [Compound 589, 3-{[Bis-(2-hydroxy-propyl)-amino]-methyl}-N-[3-(4-fluoro-benzylidene-hydrazinocarbonyl)-4-methyl-thiophen-2-yl]-benzamide] was tested. Which IC50 did it give?
**A.** Its IC50 is under 3 µM.

**Q.** For Cc1csc(NC(=O)c2cccc(CN(CC(C)O)CC(C)O)c2)c1C(=O)N/N=C/c1cccc(F)c1 (stereo not shown) [Compound 590, 3-{[Bis-(2-hydroxy-propyl)-amino]-methyl}-N-[3-(3-fluoro-benzylidene-hydrazinocarbonyl)-4-methyl-thiophen-2-yl]-benzamide], which IC50 is on record?
**A.** Its IC50 is 6.18 µM.

**Q.** With Cc1ccc(/C=N/NC(=O)c2c(C)csc2NC(=O)c2cccc(CN3CCC(O)CC3)c2)cc1C [Compound 593, N-[3-(3,4-Dimethyl-benzylidene-hydrazinocarbonyl)-4-methyl-thiophen-2-yl]-3-(4-hydroxy-piperidin-1-ylmethyl)-benzamide] as the molecule, how does the IC50 read?
**A.** Its IC50 is under 3 µM.

**Q.** With Cc1ccc(/C=N/NC(=O)c2c(C)csc2NC(=O)c2cccc(CN3CCC(O)CC3)c2)cc1 [Compound 594, 3-(4-Hydroxy-piperidin-1-ylmethyl)-N-[4-methyl-3-(4-methyl-benzylidene-hydrazinocarbonyl)-thiophen-2-yl]-benzamide] as the molecule, how does the IC50 read?
**A.** The IC50 was 3.6 µM.

**Q.** With Cc1csc(NC(=O)c2cccc(CN3CCC(O)CC3)c2)c1C(=O)N/N=C/c1ccc(F)cc1 [Compound 595, N-[3-(4-Fluoro-benzylidene-hydrazinocarbonyl)-4-methyl-thiophen-2-yl]-3-(4-hydroxy-piperidin-1-ylmethyl)-benzamide] as the molecule, how does the IC50 read?
**A.** The IC50 was 3.87 µM.

**Q.** Cc1csc(NC(=O)c2cccc(CN3CCC(O)CC3)c2)c1C(=O)N/N=C/c1cccc(F)c1 [Compound 596, N-[3-(3-Fluoro-benzylidene-hydrazinocarbonyl)-4-methyl-thiophen-2-yl]-3-(4-hydroxy-piperidin-1-ylmethyl)-benzamide] was tested. Which IC50 did it give?
**A.** The IC50 was 5.47 µM.

**Q.** Which IC50 does the source give for Cc1csc(NC(=O)c2cccc(CN3CCC(O)CC3)c2)c1C(=O)N/N=C/c1ccc(Cl)c(C(F)(F)F)c1 [Compound 597, N-[3-(4-Chloro-3-trifluoromethyl-benzylidene-hydrazinocarbonyl)-4-methyl-thiophen-2-yl]-3-(4-hydroxy-piperidin-1-ylmethyl)-benzamide] here?
**A.** The IC50 was 1.47 µM.

**Q.** Which IC50 does the source give for COc1ccc(/C=N/NC(=O)c2c(C)csc2NC(=O)c2cccc(CN3CCC(O)CC3)c2)cc1 [Compound 598, 3-(4-Hydroxy-piperidin-1-ylmethyl)-N-[3-(4-methoxy-benzylidene-hydrazinocarbonyl)-4-methyl-thiophen-2-yl]-benzamide] here?
**A.** The IC50 was 53 µM.

**Q.** Which IC50 does the source give for Cc1ccc(/C=N/NC(=O)c2c(C)csc2NC(=O)c2cccc(CN3CCC(CO)CC3)c2)cc1C [Compound 599, N-[3-(3,4-Dimethyl-benzylidene-hydrazinocarbonyl)-4-methyl-thiophen-2-yl]-3-(4-hydroxymethyl-piperidin-1-ylmethyl)-benzamide] here?
**A.** Its IC50 is under 3 µM.

**Q.** For Cc1ccc(/C=N/NC(=O)c2c(C)csc2NC(=O)c2cccc(CN3CCC(CO)CC3)c2)cc1 [Compound 600, 3-(4-Hydroxymethyl-piperidin-1-ylmethyl)-N-[4-methyl-3-(4-methyl-benzylidene-hydrazinocarbonyl)-thiophen-2-yl]-benzamide], which IC50 is on record?
**A.** Its IC50 is 3.84 µM.

**Q.** Cc1csc(NC(=O)c2cccc(CN3CCC(CO)CC3)c2)c1C(=O)N/N=C/c1ccc(F)cc1 [Compound 601, N-[3-(4-Fluoro-benzylidene-hydrazinocarbonyl)-4-methyl-thiophen-2-yl]-3-(4-hydroxymethyl-piperidin-1-ylmethyl)-benzamide] was tested. Which IC50 did it give?
**A.** Its IC50 is under 3 µM.

**Q.** With Cc1csc(NC(=O)c2cccc(CN3CCC(CO)CC3)c2)c1C(=O)N/N=C/c1cccc(F)c1 [Compound 602, N-[3-(3-Fluoro-benzylidene-hydrazinocarbonyl)-4-methyl-thiophen-2-yl]-3-(4-hydroxymethyl-piperidin-1-ylmethyl)-benzamide] as the molecule, how does the IC50 read?
**A.** The IC50 was 3.98 µM.

**Q.** With Cc1csc(NC(=O)c2cccc(CN3CCC(CO)CC3)c2)c1C(=O)N/N=C/c1ccc(Cl)c(C(F)(F)F)c1 [Compound 603, N-[3-(4-Chloro-3-trifluoromethyl-benzylidene-hydrazinocarbonyl)-4-methyl-thiophen-2-yl]-3-(4-hydroxymethyl-piperidin-1-ylmethyl)-benzamide] as the molecule, how does the IC50 read?
**A.** Its IC50 is under 3 µM.

**Q.** How did the IC50 turn out when COc1ccc(/C=N/NC(=O)c2c(C)csc2NC(=O)c2cccc(CN3CCC(CO)CC3)c2)cc1 [Compound 604, 3-(4-Hydroxymethyl-piperidin-1-ylmethyl)-N-[3-(4-methoxy-benzylidene-hydrazinocarbonyl)-4-methyl-thiophen-2-yl]-benzamide] was run?
**A.** The IC50 was 9.23 µM.

**Q.** For Cc1ccc(/C=N/NC(=O)c2c(NC(=O)c3cccc(CSCCCO)c3)sc3c2CCCC3)cc1C [Compound 605, N-[3-(3,4-Dimethyl-benzylidene-hydrazinocarbonyl)-4,5,6,7-tetrahydro-benzo[b]thiophen-2-yl]-3-(3-hydroxy-propylsulfanyl-methyl)-benzamide], which IC50 is on record?
**A.** Its IC50 is 0.95 µM.

**Q.** For O=C(Nc1sc2c(c1C(=O)N/N=C/c1ccc(F)cc1)CCCC2)c1cccc(CSCCCO)c1 [Compound 606, N-[3-(4-Fluoro-benzylidene-hydrazinocarbonyl)-4,5,6,7-tetrahydro-benzo[b]thiophen-2-yl]-3-(3-hydroxy-propylsulfanylmethyl)-benzamide], which IC50 is on record?
**A.** The IC50 was 1.01 µM.

**Q.** For O=C(Nc1sc2c(c1C(=O)N/N=C/c1cccc(F)c1)CCCC2)c1cccc(CSCCCO)c1 [Compound 607, N-[3-(3-Fluoro-benzylidene-hydrazinocarbonyl)-4,5,6,7-tetrahydro-benzo[b]thiophen-2-yl]-3-(3-hydroxy-propylsulfanylmethyl)-benzamide], which IC50 is on record?
**A.** The IC50 was 0.43 µM.

**Q.** Which IC50 does the source give for O=C(Nc1sc2c(c1C(=O)N/N=C/c1ccc(Cl)c(C(F)(F)F)c1)CCCC2)c1cccc(CSCCCO)c1 [Compound 608, N-[3-(4-Chloro-3-trifluoromethyl-benzylidene-hydrazinocarbonyl)-4,5,6,7-tetrahydro-benzo[b]thiophen-2-yl]-3-(3-hydroxy-propylsulfanylmethyl)-benzamide] here?
**A.** Its IC50 is under 0.3 µM.

**Q.** For CCN(CC)CCN(C)Cc1cccc(C(=O)Nc2sc3c(c2C(=O)N/N=C/c2ccc(C)c(C)c2)CCCC3)c1 [Compound 609, 3-{[(2-Diethylamino-ethyl)-methyl-amino]-methyl}-N-[3-(3,4-dimethyl-benzylidene-hydrazinocarbonyl)-4,5,6,7-tetrahydro-benzo[b]thiophen-2-yl]-benzamide], which IC50 is on record?
**A.** The IC50 was under 0.3 µM.

**Q.** With CCN(CC)CCN(C)Cc1cccc(C(=O)Nc2sc3c(c2C(=O)N/N=C/c2ccc(C)cc2)CCCC3)c1 [Compound 610, 3-{[(2-Diethylamino-ethyl)-methyl-amino]-methyl}-N-[3-(4-methyl-benzylidene-hydrazinocarbonyl)-4,5,6,7-tetrahydro-benzo-[b]thiophen-2-yl]-benzamide] as the molecule, how does the IC50 read?
**A.** The IC50 was 1.82 µM.
